The text below walks through data of patent publication US8022091B2, “Triazole derivative” (Taisho Pharmaceutical Co., Ltd., priority 2006, dated 2011).

Each structure is given as a SMILES string. Where “and” joins values, the source holds several entries; their conditions need not be identical. Identical values can stand only once.

Tested on in one series: not given
Experiment: not given
Conditions: not given
Regarding `CCn1c(Oc2cccc(N3CCCC3)c2)nnc1[C@@H](C)NS(=O)(=O)c1ccc(Cl)c(Cl)c1` [Compound 79], the melting point (in general, the temperature of the solid-liquid transition) lay within 190 to 195 °C.

`CCn1c(Oc2ccc3cc[nH]c3c2)nnc1[C@@H](C)NS(=O)(=O)c1ccc(C)c(C)c1` [Compound 129] had a melting point of 96 to 104 °C.

`C[C@@H](NS(=O)(=O)c1ccc(Cl)c(Cl)c1)c1nnc(Oc2cccc(N3CCN(C)CC3)c2)n1C1CC1` [Compound 123]: the melting point lay in the range of 162 to 165 °C.

The compound `CCn1c(Oc2ccc3cc[nH]c3c2)nnc1[C@@H](C)NS(=O)(=O)c1cccc(C(F)(F)F)c1` [Compound 135] had a melting point of 188.5 to 192 °C.

Regarding `CCn1c(Oc2ccc3[nH]c(C)cc3c2)nnc1[C@@H](C)NS(=O)(=O)c1ccc(Cl)c(Cl)c1` [Compound 65], the melting point was 201 to 202 °C.

Consider `CCn1c(Oc2cccc(N3CCN(C)CC3)c2)nnc1[C@@H](C)NS(=O)(=O)c1ccc(Br)c(Br)c1` [Compound 112], for which the melting point lay within 171 to 173 °C.

As for `CCn1c(Oc2cccc3ccccc23)nnc1[C@@H](C)NS(=O)(=O)c1ccc(Cl)c(Cl)c1` [Compound 41], the melting point is 166 to 170 °C.

The compound `CCn1c(Oc2ccc3c(c2)N=S=N3)nnc1[C@@H](C)NS(=O)(=O)c1ccc(Cl)c(Cl)c1` [Compound 81] gave a melting point of 160 to 165 °C.

Take `CCn1c(Oc2cccc(N3CCN(C)CC3)c2)nnc1[C@@H](C)NS(=O)(=O)c1ccc2ccccc2c1` [Compound 121]: the melting point lay in the range of 195.5 to 198.5 °C.

`CCn1c(Oc2ccc3sc(C)nc3c2)nnc1[C@@H](C)NS(=O)(=O)c1ccc(Cl)c(Cl)c1` [Compound 46]: the melting point was in the range of 247 to 250 °C.

`CCn1c(Oc2ccc(Cl)cc2)nnc1[C@@H](C)NS(=O)(=O)c1ccc2ccccc2c1` [Compound 141] yielded a melting point of 169 to 173 °C.

The compound `CCn1c(Oc2cccnc2)nnc1[C@@H](C)NS(=O)(=O)c1ccc(Cl)c(Cl)c1` [Compound 50] registered a melting point of 129 to 130 °C.

Another series deals with T1, human Edg-1 (S1P1) (Homo sapiens, UniProt P21453).
T1 construct: expressed in transfected cells; host or cells: HEK-293
T1 sequence (P21453 whole entry): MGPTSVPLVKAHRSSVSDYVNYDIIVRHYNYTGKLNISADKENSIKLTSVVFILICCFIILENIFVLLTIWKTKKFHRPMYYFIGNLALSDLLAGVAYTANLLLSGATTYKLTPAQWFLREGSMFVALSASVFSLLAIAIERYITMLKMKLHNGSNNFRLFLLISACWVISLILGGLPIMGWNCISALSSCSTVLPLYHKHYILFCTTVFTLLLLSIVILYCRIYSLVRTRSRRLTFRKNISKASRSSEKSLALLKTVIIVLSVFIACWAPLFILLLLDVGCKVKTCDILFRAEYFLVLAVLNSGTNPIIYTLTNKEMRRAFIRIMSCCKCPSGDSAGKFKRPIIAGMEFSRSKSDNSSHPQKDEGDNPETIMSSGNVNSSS
Nature of the series: S1P1 binding assay: inhibition of [33P]-S1P binding to membrane fraction of HEK-293 cells transferred with the human Edg-1 (S1P1) gene. The following applies: [33P]-S1P 0.1 nM, human Edg-1 (S1P1) HEK-293 membrane fraction, 1 h at 30° C.; read-out: IC50 (concentration at which binding in the absence of the test compound was inhibited by 50%). The procedure, abridged:
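With 0.1 nM [33P]-S1P and compound (10^−5M single point, or a concentration range for IC50) in 0.1% DMSO, membrane fractions from human Edg-1-expressing HEK-293 cells were treated for one hour at 30° C in 20 mM Tris-HCl pH 7.4 with NaF, deoxypyridoxine and BSA. Bound label was measured after filtration, with untransfected-cell background subtracted.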
In the case of `CCn1c(Oc2ccc3cc[nH]c3c2)nnc1[C@@H](C)NS(=O)(=O)c1ccc(C)c(C)c1` [Compound 129], the IC50 amounted to 0.02 µM.

For the compound `C[C@@H](NS(=O)(=O)c1ccc(Cl)c(Cl)c1)c1nnc(Oc2cccc(N3CCN(C)CC3)c2)n1C1CC1` [Compound 123], the IC50 was no more than 0.035 µM.

Take `CCn1c(Oc2cccc(N3CCN(C)CC3)c2)nnc1[C@@H](C)NS(=O)(=O)c1ccc(Br)c(Br)c1` [Compound 112]: the IC50 was no more than 0.01 µM.

On to `CCn1c(Oc2cccc(N3CCN(C)CC3)c2)nnc1[C@@H](C)NS(=O)(=O)c1ccc2ccccc2c1` [Compound 121], for which the IC50 was no more than 0.01 µM.

Regarding `CCn1c(Oc2ccc3sc(C)nc3c2)nnc1[C@@H](C)NS(=O)(=O)c1ccc(Cl)c(Cl)c1` [Compound 46], the IC50 was ≤ 0.035 µM and 0.0285 µM.

As to `CCn1c(Oc2ccc(Cl)cc2)nnc1[C@@H](C)NS(=O)(=O)c1ccc2ccccc2c1` [Compound 141], the IC50 was no more than 0.035 µM.

The series is the same for the next values; noted with them: test compound at 10 μM; inhibition of [33P]-S1P binding to the membrane fraction of HEK-293 cells expressing human Edg-1 (S1P1).
`CCn1c(Oc2cccc(N3CCCC3)c2)nnc1[C@@H](C)NS(=O)(=O)c1ccc(Cl)c(Cl)c1` [Compound 79]: the inhibition (as a rule, the change of the read-out against control, counted positive when it falls) at 10 µM amounted to 104%.

For the compound `CCn1c(Oc2ccc3cc[nH]c3c2)nnc1[C@@H](C)NS(=O)(=O)c1ccc(C)c(C)c1` [Compound 129], the inhibition at 10 µM came to 96.8%.

Consider `C[C@@H](NS(=O)(=O)c1ccc(Cl)c(Cl)c1)c1nnc(Oc2cccc(N3CCN(C)CC3)c2)n1C1CC1` [Compound 123], for which the inhibition at 10 µM stood at 97.1%.

Take `CCn1c(Oc2ccc3cc[nH]c3c2)nnc1[C@@H](C)NS(=O)(=O)c1cccc(C(F)(F)F)c1` [Compound 135]: the inhibition at 10 µM was found to be 101%.

Regarding `CCn1c(Oc2ccc3[nH]c(C)cc3c2)nnc1[C@@H](C)NS(=O)(=O)c1ccc(Cl)c(Cl)c1` [Compound 65], the inhibition at 10 µM worked out at 105%.

In the case of `CCn1c(Oc2cccc(N3CCN(C)CC3)c2)nnc1[C@@H](C)NS(=O)(=O)c1ccc(Br)c(Br)c1` [Compound 112], the inhibition at 10 µM turned out to be 99.2%.

Turning to `CCn1c(Oc2cccc3ccccc23)nnc1[C@@H](C)NS(=O)(=O)c1ccc(Cl)c(Cl)c1` [Compound 41], the inhibition at 10 µM worked out at 92%.

As to `CCn1c(Oc2ccc3c(c2)N=S=N3)nnc1[C@@H](C)NS(=O)(=O)c1ccc(Cl)c(Cl)c1` [Compound 81], the inhibition at 10 µM was 93.2%.

`CCn1c(Oc2cccc(N3CCN(C)CC3)c2)nnc1[C@@H](C)NS(=O)(=O)c1ccc2ccccc2c1` [Compound 121]: the inhibition at 10 µM turned out to be 103%.

As for `CCn1c(Oc2ccc3sc(C)nc3c2)nnc1[C@@H](C)NS(=O)(=O)c1ccc(Cl)c(Cl)c1` [Compound 46], the inhibition at 10 µM came out at 94.6%.

As to `CCn1c(Oc2ccc(Cl)cc2)nnc1[C@@H](C)NS(=O)(=O)c1ccc2ccccc2c1` [Compound 141], the inhibition at 10 µM was found to be 105%.

`CCn1c(Oc2cccnc2)nnc1[C@@H](C)NS(=O)(=O)c1ccc(Cl)c(Cl)c1` [Compound 50]: the inhibition at 10 µM came to 92.9%.
